Experimental data from ChEMBL document CHEMBL4251602, “Synthesis and biological evaluation of novel 1-(aryl-aldehyde-oxime)uracil derivatives as a new class of thymidine phosphorylase inhibitors” (Eur J Med Chem, 2018).

How the values were obtained:
Thymidine phosphorylase = target: T1, Thymidine phosphorylase (Homo sapiens, UniProt P19971)
T1 sequence (P19971 whole entry): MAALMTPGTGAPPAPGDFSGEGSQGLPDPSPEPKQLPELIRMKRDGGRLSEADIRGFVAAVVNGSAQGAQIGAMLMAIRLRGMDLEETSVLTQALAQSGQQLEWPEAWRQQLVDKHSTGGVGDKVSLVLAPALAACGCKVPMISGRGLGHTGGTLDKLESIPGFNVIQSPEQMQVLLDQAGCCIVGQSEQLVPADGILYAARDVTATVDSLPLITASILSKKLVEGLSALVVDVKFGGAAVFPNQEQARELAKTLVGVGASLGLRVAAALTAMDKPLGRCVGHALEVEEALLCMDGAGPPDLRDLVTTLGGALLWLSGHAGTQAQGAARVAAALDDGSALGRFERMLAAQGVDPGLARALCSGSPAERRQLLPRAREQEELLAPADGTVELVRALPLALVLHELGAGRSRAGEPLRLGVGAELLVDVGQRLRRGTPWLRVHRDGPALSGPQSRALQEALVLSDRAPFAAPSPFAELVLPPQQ

NIH3T3 [1] = assay: Cytotoxicity against mouse 3T3 cells by SRB assay; assay type: functional, cell-based
NIH3T3 [2] = assay: Cytotoxicity against mouse 3T3 cells at 50 uM by SRB assay; assay type: cell-based; conditions: nih3t3, 50 µM
[3] = Stability in water assessed as parent pure compound remaining at 1 mg measured within 10 days by HPLC analysis (reference value: 95%); assay type: physicochemical; conditions: read-out: Stability
[4] = Stability in bovine serum assessed as parent pure compound remaining at 1 mg measured within 10 days by HPLC analysis; assay type: ADME, cell-free, Bos taurus; conditions: cattle, 240 h
[5] = substrate: Cc1cc(=O)[nH]c(=O)n1/C(=N\O)c1ccc(Cl)c(Cl)c1; conditions: Homo sapiens

Molecule: COc1cccc(/C(=N\O)n2cc(I)c(=O)[nH]c2=O)c1
- IC50 (Thymidine phosphorylase): 33.4 µM

Molecule: Cc1cc(=O)[nH]c(=O)n1/C(=N\O)c1cccc(F)c1
- IC50 (Thymidine phosphorylase): 41.2 µM

Molecule: Cc1cc(=O)[nH]c(=O)n1/C(=N\O)c1cccs1
- IC50 (Thymidine phosphorylase): 39.9 µM

Molecule: Cc1cc(=O)[nH]c(=O)n1C(=O)c1ccccc1
- IC50 (Thymidine phosphorylase): 92.4 µM

Molecule: COc1ccc(/C(=N/O)n2c(C)cc(=O)[nH]c2=O)cc1
- IC50 (Thymidine phosphorylase): 16.5 µM

Molecule: Cc1cc(=O)[nH]c(=O)n1/C(=N\O)c1ccc(F)cc1
- IC50 (Thymidine phosphorylase): 44.1 µM

Molecule: Cc1cc(=O)[nH]c(=O)n1/C(=N\O)c1ccccc1
- IC50 (Thymidine phosphorylase): 21.4 µM

Molecule: Cc1ccc(/C(=N\O)n2cc(I)c(=O)[nH]c2=O)cc1
- IC50 (Thymidine phosphorylase): 22.5 µM

Molecule: Cc1cc(=O)[nH]c(=O)n1/C(=N\O)c1ccc(Br)cc1
- IC50 (Thymidine phosphorylase): 2.7 µM

Molecule: C[C@@H]1C[C@@H]([C@H](O)CC2CC(=O)NC(=O)C2)C(=O)[C@@H](C)C1 [CYCLOHEXIMIDE]
- IC50 (NIH3T3 [1]): 300 nM

Molecule: CO/N=C(\c1ccccc1)n1c(C)cc(=O)[nH]c1=O
- IC50 (Thymidine phosphorylase): 85.6 µM

Molecule: O=c1[nH]c(=O)n(/C(=N/O)c2ccccc2F)cc1I
- IC50 (Thymidine phosphorylase): 53.7 µM

Molecule: O=c1[nH]c(=O)n(/C(=N/O)c2ccc(F)cc2)cc1I
- IC50 (Thymidine phosphorylase): 41.3 µM

Molecule: Cc1cc(=O)[nH]c(=O)n1/C(=N\O)c1ccccc1F
- IC50 (Thymidine phosphorylase): 49.3 µM

Molecule: Cc1cc(=O)[nH]c(=O)n1/C(=N\O)c1ccc(Cl)cc1
- Activity (NIH3T3 [2]): Non-Toxic
- IC50 (Thymidine phosphorylase): 1.4 µM

Molecule: O=c1[nH]c(=O)n(/C(=N/O)c2ccc(Cl)cc2)cc1I
- IC50 (Thymidine phosphorylase): 15.6 µM

Molecule: COc1ccc(/C(=N\O)n2cc(I)c(=O)[nH]c2=O)cc1
- IC50 (Thymidine phosphorylase): 25.2 µM

Molecule: O=c1[nH]c(=O)n(/C(=N/O)c2ccccc2)cc1I
- IC50 (Thymidine phosphorylase): 37.3 µM

Molecule: Cc1cc(=O)[nH]c(=O)n1/C(=N\O)c1ccc(Cl)c(Cl)c1
- remaining at 240 h [3]: 87%
- Activity (NIH3T3 [2]): Non-Toxic
- Stability [4]: Stable
- IC50 (Thymidine phosphorylase): 0.12 µM

Molecule: Cc1cccc(/C(=N/O)n2c(C)cc(=O)[nH]c2=O)c1
- IC50 (Thymidine phosphorylase): 15.9 µM

Molecule: CCc1ccc(/C(=N\O)n2cc(I)c(=O)[nH]c2=O)cc1
- IC50 (Thymidine phosphorylase): 10.7 µM

Molecule: CCc1ccc(/C(=N/O)n2c(C)cc(=O)[nH]c2=O)cc1
- Activity (NIH3T3 [2]): Non-Toxic
- IC50 (Thymidine phosphorylase): 3.4 µM

Molecule: Cc1ccc(/C(=N/O)n2c(C)cc(=O)[nH]c2=O)cc1
- Activity (NIH3T3 [2]): Non-Toxic
- IC50 (Thymidine phosphorylase): 7.2 µM

Molecule: COc1cccc(/C(=N/O)n2c(C)cc(=O)[nH]c2=O)c1
- IC50 (Thymidine phosphorylase): 25.1 µM

B1: Thymidine phosphorylase (Homo sapiens), P19971 (protein)
chain: MAALMTPGTGAPPAPGDFSGEGSQGLPDPSPEPKQLPELIRMKRDGGRLSEADIRGFVAAVVNGSAQGAQIGAMLMAIRLRGMDLEETSVLTQALAQSGQQLEWPEAWRQQLVDKHSTGGVGDKVSLVLAPALAACGCKVPMISGRGLGHTGGTLDKLESIPGFNVIQSPEQMQVLLDQAGCCIVGQSEQLVPADGILYAARDVTATVDSLPLITASILSKKLVEGLSALVVDVKFGGAAVFPNQEQARELAKTLVGVGASLGLRVAAALTAMDKPLGRCVGHALEVEEALLCMDGAGPPDLRDLVTTLGGALLWLSGHAGTQAQGAARVAAALDDGSALGRFERMLAAQGVDPGLARALCSGSPAERRQLLPRAREQEELLAPADGTVELVRALPLALVLHELGAGRSRAGEPLRLGVGAELLVDVGQRLRRGTPWLRVHRDGPALSGPQSRALQEALVLSDRAPFAAPSPFAELVLPPQQ
- Km [5]: 2000 µM
